Columns and labels:
Conditions in all cases: Compound concentration 100.0 nM
[1] = biological target: cAMP-dependent protein kinase catalytic subunit beta (Homo sapiens) (UniProt P22694)
[2] = biological target: Serine/threonine-protein kinase WNK4 (Homo sapiens) (UniProt Q96J92)
[3] = tested on: Proto-oncogene tyrosine-protein kinase receptor Ret (Homo sapiens), P07949 [V804L]
[4] = biological target: Serine/threonine-protein kinase PAK 4 (Homo sapiens) (UniProt O96013)
[5] = biological target: Eukaryotic translation initiation factor 2-alpha kinase 1 (Homo sapiens) (UniProt Q9BQI3)
[6] = biological target: Tyrosine-protein kinase receptor UFO (Homo sapiens) (UniProt P30530)
[7] = biological target: Platelet-derived growth factor receptor beta (Homo sapiens) (UniProt P09619)
Sequence of Platelet-derived growth factor receptor beta (Homo sapiens) (P09619 whole entry): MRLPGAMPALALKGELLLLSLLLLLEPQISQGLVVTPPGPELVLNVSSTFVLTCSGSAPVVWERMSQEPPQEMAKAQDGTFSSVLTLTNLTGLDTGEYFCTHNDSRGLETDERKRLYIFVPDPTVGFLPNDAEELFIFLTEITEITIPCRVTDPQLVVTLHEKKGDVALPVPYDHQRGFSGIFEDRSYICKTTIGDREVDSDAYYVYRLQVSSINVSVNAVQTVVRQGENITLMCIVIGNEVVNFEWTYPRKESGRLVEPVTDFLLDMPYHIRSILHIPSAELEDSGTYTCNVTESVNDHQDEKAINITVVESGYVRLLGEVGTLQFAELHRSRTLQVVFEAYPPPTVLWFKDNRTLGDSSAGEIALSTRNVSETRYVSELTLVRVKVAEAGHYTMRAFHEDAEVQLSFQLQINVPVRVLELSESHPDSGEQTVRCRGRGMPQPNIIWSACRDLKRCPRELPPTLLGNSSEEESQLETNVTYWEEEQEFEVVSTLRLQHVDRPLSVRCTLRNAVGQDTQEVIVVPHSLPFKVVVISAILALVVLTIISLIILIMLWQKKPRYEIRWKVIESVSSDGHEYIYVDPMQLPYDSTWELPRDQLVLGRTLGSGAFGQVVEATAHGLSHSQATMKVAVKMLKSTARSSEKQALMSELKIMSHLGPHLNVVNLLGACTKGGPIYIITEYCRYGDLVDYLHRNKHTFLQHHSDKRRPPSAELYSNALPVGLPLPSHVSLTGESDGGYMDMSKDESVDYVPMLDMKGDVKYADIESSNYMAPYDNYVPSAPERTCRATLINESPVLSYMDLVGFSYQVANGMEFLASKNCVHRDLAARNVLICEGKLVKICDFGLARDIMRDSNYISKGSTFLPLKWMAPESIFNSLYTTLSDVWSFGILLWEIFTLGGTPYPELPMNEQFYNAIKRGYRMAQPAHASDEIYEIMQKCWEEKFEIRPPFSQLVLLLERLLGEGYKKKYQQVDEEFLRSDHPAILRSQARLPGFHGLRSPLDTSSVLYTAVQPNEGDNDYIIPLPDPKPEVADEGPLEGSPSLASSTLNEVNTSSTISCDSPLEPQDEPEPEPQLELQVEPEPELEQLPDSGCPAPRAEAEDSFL

[8] = biological target: Mitogen-activated protein kinase kinase kinase kinase 2 (Homo sapiens) (UniProt Q12851)
[9] = biological target: Protein kinase C theta type (Homo sapiens) (UniProt Q04759)
Sequence of Protein kinase C theta type (Homo sapiens) (Q04759 whole entry, looked up): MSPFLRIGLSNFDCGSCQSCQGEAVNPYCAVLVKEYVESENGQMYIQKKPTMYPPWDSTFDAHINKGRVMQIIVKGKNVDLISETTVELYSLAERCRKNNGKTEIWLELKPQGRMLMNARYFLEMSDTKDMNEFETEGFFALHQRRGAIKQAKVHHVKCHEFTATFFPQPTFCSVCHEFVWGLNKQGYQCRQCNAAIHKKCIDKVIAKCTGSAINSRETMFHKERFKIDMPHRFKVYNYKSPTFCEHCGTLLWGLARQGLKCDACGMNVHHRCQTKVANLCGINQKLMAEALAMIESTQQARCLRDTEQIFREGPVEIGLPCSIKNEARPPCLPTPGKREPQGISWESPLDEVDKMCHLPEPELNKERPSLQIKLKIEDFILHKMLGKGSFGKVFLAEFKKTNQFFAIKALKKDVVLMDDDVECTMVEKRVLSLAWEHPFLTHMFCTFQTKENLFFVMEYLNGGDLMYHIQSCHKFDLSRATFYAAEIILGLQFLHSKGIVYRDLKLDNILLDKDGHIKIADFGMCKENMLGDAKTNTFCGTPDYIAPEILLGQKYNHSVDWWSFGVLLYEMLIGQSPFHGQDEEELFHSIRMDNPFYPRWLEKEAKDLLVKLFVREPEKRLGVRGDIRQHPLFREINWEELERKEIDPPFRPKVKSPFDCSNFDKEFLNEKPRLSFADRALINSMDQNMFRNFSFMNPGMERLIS

[10] = biological target: Cyclin-dependent kinase 2 (Homo sapiens) (UniProt P24941)
[11] = biological target: Serine/threonine-protein kinase 36 (Homo sapiens) (UniProt Q9NRP7)
[12] = biological target: Macrophage colony-stimulating factor 1 receptor (Homo sapiens) (UniProt P07333)
[13] = biological target: Serine/threonine-protein kinase MAK (Homo sapiens) (UniProt P20794)
Sequence of Serine/threonine-protein kinase MAK (Homo sapiens) (P20794 whole entry): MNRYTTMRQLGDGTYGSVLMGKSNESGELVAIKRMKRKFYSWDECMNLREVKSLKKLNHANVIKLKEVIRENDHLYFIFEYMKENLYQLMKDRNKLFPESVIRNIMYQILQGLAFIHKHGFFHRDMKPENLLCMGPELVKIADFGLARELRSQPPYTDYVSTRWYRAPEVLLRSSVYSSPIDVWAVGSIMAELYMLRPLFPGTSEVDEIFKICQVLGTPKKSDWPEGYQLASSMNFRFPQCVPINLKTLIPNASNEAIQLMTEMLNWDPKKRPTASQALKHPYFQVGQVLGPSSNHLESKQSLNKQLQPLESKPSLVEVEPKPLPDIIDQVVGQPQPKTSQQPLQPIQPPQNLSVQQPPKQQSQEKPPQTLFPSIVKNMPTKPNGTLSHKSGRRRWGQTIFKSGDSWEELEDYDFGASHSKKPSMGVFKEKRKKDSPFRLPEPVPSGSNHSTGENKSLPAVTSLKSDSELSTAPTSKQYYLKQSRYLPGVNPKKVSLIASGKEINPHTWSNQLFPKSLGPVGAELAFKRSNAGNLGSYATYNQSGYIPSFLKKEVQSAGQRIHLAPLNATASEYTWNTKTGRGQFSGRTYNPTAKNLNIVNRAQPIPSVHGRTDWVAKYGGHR

[14] = biological target: Serine/threonine-protein kinase WNK2 (Homo sapiens) (UniProt Q9Y3S1)
[15] = biological target: Tyrosine-protein kinase JAK3 (Homo sapiens) (UniProt P52333)
[16] = biological target: Mitogen-activated protein kinase kinase kinase 4 (Homo sapiens) (UniProt Q9Y6R4)
Sequence of Mitogen-activated protein kinase kinase kinase 4 (Homo sapiens) (Q9Y6R4 whole entry): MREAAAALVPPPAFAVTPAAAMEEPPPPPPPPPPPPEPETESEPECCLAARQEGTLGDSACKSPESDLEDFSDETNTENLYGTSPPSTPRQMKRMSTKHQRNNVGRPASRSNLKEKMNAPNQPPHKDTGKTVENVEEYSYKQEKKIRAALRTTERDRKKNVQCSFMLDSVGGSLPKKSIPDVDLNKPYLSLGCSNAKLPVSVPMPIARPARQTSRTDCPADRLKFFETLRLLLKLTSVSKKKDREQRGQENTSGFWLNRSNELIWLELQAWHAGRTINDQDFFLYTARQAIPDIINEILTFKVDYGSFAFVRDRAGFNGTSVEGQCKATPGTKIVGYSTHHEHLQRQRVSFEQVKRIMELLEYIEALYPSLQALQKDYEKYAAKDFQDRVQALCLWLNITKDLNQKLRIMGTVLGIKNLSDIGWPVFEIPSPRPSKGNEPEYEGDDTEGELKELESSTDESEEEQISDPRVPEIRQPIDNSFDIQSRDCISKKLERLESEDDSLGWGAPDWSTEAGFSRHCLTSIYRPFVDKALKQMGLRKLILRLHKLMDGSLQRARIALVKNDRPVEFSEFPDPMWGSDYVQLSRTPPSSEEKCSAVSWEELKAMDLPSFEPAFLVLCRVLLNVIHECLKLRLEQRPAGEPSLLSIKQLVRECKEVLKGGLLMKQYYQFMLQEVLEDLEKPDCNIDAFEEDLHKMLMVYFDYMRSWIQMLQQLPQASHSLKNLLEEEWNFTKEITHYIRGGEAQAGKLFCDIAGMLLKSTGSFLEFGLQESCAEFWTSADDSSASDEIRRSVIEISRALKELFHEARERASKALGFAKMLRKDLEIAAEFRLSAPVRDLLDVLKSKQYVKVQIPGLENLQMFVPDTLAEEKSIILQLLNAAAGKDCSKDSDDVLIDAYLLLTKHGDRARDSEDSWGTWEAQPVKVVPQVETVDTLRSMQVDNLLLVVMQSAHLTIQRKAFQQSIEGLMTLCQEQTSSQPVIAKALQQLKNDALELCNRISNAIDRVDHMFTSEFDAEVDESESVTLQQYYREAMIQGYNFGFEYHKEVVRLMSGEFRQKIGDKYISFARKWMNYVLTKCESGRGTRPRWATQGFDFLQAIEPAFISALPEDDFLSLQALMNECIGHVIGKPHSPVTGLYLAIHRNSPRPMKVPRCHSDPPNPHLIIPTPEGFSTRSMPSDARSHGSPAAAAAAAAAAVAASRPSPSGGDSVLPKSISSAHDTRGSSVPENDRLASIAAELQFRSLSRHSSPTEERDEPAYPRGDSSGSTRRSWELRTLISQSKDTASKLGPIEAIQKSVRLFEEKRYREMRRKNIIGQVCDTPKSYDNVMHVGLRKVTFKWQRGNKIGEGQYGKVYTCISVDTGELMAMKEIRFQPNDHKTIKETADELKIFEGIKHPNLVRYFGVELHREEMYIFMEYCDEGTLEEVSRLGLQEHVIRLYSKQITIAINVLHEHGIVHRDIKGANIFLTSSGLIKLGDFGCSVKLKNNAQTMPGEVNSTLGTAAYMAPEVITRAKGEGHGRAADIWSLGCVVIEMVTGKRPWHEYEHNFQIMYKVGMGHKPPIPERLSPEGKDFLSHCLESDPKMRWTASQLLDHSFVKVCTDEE

[17] = biological target: Myosin light chain kinase 2, skeletal/cardiac muscle (Homo sapiens) (UniProt Q9H1R3)
[18] = biological target: Calcium/calmodulin-dependent protein kinase type II subunit delta (Homo sapiens) (UniProt Q13557)
[19] = biological target: NUAK family SNF1-like kinase 2 (Homo sapiens) (UniProt Q9H093)
[20] = biological target: Dual specificity protein kinase TTK (Homo sapiens) (UniProt P33981)
[21] = biological target: Cyclin-dependent kinase 4 (Homo sapiens) (UniProt P11802)
Sequence of Cyclin-dependent kinase 4 (Homo sapiens) (P11802 whole entry): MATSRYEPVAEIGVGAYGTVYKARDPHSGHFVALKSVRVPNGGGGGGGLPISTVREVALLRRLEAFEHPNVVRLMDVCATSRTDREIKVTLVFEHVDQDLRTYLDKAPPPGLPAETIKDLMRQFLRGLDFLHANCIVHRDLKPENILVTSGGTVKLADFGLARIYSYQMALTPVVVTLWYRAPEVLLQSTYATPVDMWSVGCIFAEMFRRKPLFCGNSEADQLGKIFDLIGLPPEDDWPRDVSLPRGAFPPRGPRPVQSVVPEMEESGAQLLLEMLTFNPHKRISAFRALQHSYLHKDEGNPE

[22] = biological target: Testis-specific serine/threonine-protein kinase 3 (Homo sapiens) (UniProt Q96PN8)
[23] = tested on: Tyrosine-protein kinase ABL1 (Homo sapiens), P00519 [H396P]
[24] = biological target: Dual specificity mitogen-activated protein kinase kinase 1 (Homo sapiens) (UniProt Q02750)
[25] = biological target: Myosin-IIIa (Homo sapiens) (UniProt Q8NEV4)
[26] = biological target: Serine/threonine-protein kinase PLK3 (Homo sapiens) (UniProt Q9H4B4)
[27] = biological target: Interleukin-1 receptor-associated kinase 1 (Homo sapiens) (UniProt P51617)
[28] = biological target: Ribosomal protein S6 kinase alpha-4 (Homo sapiens) (UniProt O75676)
[29] = biological target: 5'-AMP-activated protein kinase catalytic subunit alpha-1 (Homo sapiens) (UniProt Q13131)
[30] = biological target: Serine/threonine-protein kinase D3 (Homo sapiens) (UniProt O94806)
[31] = biological target: Serine/threonine-protein kinase Nek10 (Homo sapiens) (UniProt Q6ZWH5)
[32] = tested on: Phosphatidylinositol 4,5-bisphosphate 3-kinase catalytic subunit alpha isoform (Homo sapiens), P42336 [E542K]
[33] = biological target: Tyrosine-protein kinase ZAP-70 (Homo sapiens) (UniProt P43403)
Sequence of Tyrosine-protein kinase ZAP-70 (Homo sapiens) (P43403 whole entry): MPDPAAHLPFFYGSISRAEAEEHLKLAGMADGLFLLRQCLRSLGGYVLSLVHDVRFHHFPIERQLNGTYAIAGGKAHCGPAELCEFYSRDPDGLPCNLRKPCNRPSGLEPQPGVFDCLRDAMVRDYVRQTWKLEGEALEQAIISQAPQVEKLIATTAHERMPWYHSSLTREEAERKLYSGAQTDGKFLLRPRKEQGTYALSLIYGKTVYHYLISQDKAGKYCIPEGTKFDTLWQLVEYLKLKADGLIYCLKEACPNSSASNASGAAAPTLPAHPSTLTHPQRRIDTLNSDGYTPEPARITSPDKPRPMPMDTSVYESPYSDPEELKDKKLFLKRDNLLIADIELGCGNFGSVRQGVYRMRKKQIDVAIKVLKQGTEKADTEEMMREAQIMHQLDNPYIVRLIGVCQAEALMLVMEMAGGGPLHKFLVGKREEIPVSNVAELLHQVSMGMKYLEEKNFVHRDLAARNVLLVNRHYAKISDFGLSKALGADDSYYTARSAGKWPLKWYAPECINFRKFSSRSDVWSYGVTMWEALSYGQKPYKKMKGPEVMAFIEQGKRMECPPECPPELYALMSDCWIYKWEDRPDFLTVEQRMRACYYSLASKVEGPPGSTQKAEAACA

[34] = biological target: Serine/threonine-protein kinase N1 (Homo sapiens) (UniProt Q16512)
[35] = biological target: Receptor tyrosine-protein kinase erbB-2 (Homo sapiens) (UniProt P04626)
[36] = biological target: Serine/threonine-protein kinase SIK2 (Homo sapiens) (UniProt Q9H0K1)
[37] = tested on: Phosphatidylinositol 4,5-bisphosphate 3-kinase catalytic subunit alpha isoform (Homo sapiens), P42336 [E545K]
[38] = biological target: Serine/threonine-protein kinase/endoribonuclease IRE1 (Homo sapiens) (UniProt O75460)
[39] = biological target: Calcium/calmodulin-dependent protein kinase type IV (Homo sapiens) (UniProt Q16566)
[40] = biological target: Death-associated protein kinase 2 (Homo sapiens) (UniProt Q9UIK4)
[41] = biological target: Fibroblast growth factor receptor 3 (Homo sapiens) (UniProt P22607)
[42] = biological target: Microtubule-associated serine/threonine-protein kinase 1 (Homo sapiens) (UniProt Q9Y2H9)
[43] = biological target: Phosphatidylinositol 4-phosphate 5-kinase type-1 gamma (Homo sapiens) (UniProt O60331)
[44] = biological target: Dual serine/threonine and tyrosine protein kinase (Homo sapiens) (UniProt Q6XUX3)
[45] = biological target: Mitotic checkpoint serine/threonine-protein kinase BUB1 (Homo sapiens) (UniProt O43683)

SMILES: CS(=O)(=O)N1CCCC(NC(=O)[C@H](CCC2CCCCC2)NC(=O)c2ccc(CNc3ncnc4c3nnn4-c3ccccc3)cc2)C1 (stereo not given in full) [SR-301]
- residual activity [1]: 92%
- residual activity [2]: 100%
- residual activity [3]: 83%
- residual activity [4]: 100%
- residual activity [5]: 81%
- residual activity [6]: 79%
- residual activity [7]: 86%
- residual activity [8]: 100%
- residual activity [9]: 90%
- residual activity [10]: 100%
- residual activity [11]: 97%
- residual activity [12]: 100%
- residual activity [13]: 100%
- residual activity [14]: 100%
- residual activity [15]: 100%
- residual activity [16]: 75%
- residual activity [17]: 90%
- residual activity [18]: 93%
- residual activity [19]: 100%
- residual activity [20]: 91%
- residual activity [21]: 100%
- residual activity [22]: 100%
- residual activity [23]: 99%
- residual activity [24]: 100%
- residual activity [25]: 97%
- residual activity [26]: 100%
- residual activity [27]: 100%
- residual activity [28]: 86%
- residual activity [29]: 100%
- residual activity [30]: 100%
- residual activity [31]: 100%
- residual activity [32]: 64%
- residual activity [33]: 100%
- residual activity [34]: 98%
- residual activity [35]: 100%
- residual activity [36]: 86%
- residual activity [37]: 53%
- residual activity [38]: 100%
- residual activity [39]: 98%
- residual activity [40]: 90%
- residual activity [41]: 100%
- residual activity [42]: 100%
- residual activity [43]: 85%
- residual activity [44]: 80%
- residual activity [45]: 100%

SMILES: CS(=O)(=O)N1CCCC(NC(=O)[C@H](CCC2CCCCC2)NC(=O)c2ccc(CNC(=O)c3cnc4ccccn34)cc2)C1 (stereo not given in full) [SR-302]
- residual activity [1]: 100%
- residual activity [2]: 80%
- residual activity [3]: 98%
- residual activity [4]: 100%
- residual activity [5]: 91%
- residual activity [6]: 96%
- residual activity [7]: 100%
- residual activity [8]: 92%
- residual activity [9]: 97%
- residual activity [10]: 88%
- residual activity [11]: 100%
- residual activity [12]: 100%
- residual activity [13]: 100%
- residual activity [14]: 100%
- residual activity [15]: 69%
- residual activity [16]: 91%
- residual activity [17]: 90%
- residual activity [18]: 84%
- residual activity [19]: 100%
- residual activity [20]: 91%
- residual activity [21]: 100%
- residual activity [22]: 93%
- residual activity [23]: 35%
- residual activity [24]: 100%
- residual activity [25]: 99%
- residual activity [26]: 96%
- residual activity [27]: 100%
- residual activity [28]: 97%
- residual activity [29]: 100%
- residual activity [30]: 90%
- residual activity [31]: 100%
- residual activity [32]: 78%
- residual activity [33]: 100%
- residual activity [34]: 72%
- residual activity [35]: 100%
- residual activity [36]: 100%
- residual activity [37]: 86%
- residual activity [38]: 100%
- residual activity [39]: 94%
- residual activity [40]: 94%
- residual activity [41]: 100%
- residual activity [42]: 94%
- residual activity [43]: 100%
- residual activity [44]: 100%
- residual activity [45]: 100%
